Where two headings read alike, the source gives them in different places.

In one test the target is T1, BRD4(BD1) (Homo sapiens, UniProt O60885).
T1 construct: a BRD4(BD1) synthetic gene that includes a TEV cleavage site was purchased from LifeTechnology; made in house
Put plainly: HTRF assay, disruption of bromodomain/histone peptide interaction. Type of test: binding. In a few lines:
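Percent inhibition was referenced to DMSO-only wells as maximum and peptide-free wells as minimum, with IC50 measured in triplicate. Signal was the 665/620 nm HTRF ratio after 337 nm excitation. Compound at 1% final DMSO was incubated overnight at room temperature with the GST-BRD4(BD1)/peptide mix plus donor and acceptor reagents.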

In another test the test system is Jurkat cells. Put plainly: Cell Titer-Glo cell viability (cytotoxicity experiments). Type of test: cell-based. The settings on record: Homo sapiens, 72 h incubation at 37° C., read-out: EC50, Jurkat T cells viability. The method, then:
The human leukemia cell line Jurkat (ATCC® TIB-152) was maintained in RPMI-1640 medium supplemented with 10% FBS at 37° C. and 5% CO2. Human osteosarcoma cell line (U2OS, ATCC® HTB-96™) was maintained in DMEM supplemented with 10% FBS at 37° C. and 5% CO2.
In antiproliferative assays, compounds were assayed for their growth inhibiting activity towards the described cancer cell lines using the Cell Titer-Glo Luminescent Cell Viability Assay as described by the manufacturer (Promega Corporation). Briefly, […] cells were plated onto 96 well-plates (white with clear bottom (3610, Corning Costar)) in 100 μL media per well immediately before assay. Compounds were added at different concentrations (ranging from 100 to 0.05 μM) to each well and cell cultures were incubated 37° C. during 72 h. Vehicle (DMSO) was used as control and all compounds were tested in constant percentage of DMSO (1%). After addition of 50 μL Cell Titer-GLO, Luminescence was measured using a Centro luminometer LB960 (Berthold). Dose-response curves were generated and effective dose 50 values (EC50) were calculated using non-linear regression analysis (Graph Pad Prism).
In general terms: ATP-based viability assays read luminescence as a measure of living cells.

The next test concerns c-Myc. Briefly: Western blot of c-Myc in Jurkat cells. It counts as cell-based, human. The following applies: 24 h, same range of concentration as EC50. As to the method:
Non-treated Jurkat cells and Jurkat cells treated during 24 h with compound of the invention 26b, or DMSO were lysed in RIPA lysis buffer (Tris HCl pH=7.5 50 mM, NaCl 150 mM, Triton 1%, SDS 0.1%, sodium deoxycholate 1%) supplemented with protease inhibitor cocktail (P8340, Sigma-Aldrich) and 1 mM PhenylMethylSulfonyl Fluoride (Sigma-Aldrich). 75 μg of protein were loaded onto 10% acrylamide SDS/PAGE and then transferred to nitrocellulose Hybond C-extra membranes, […] (GE Healthcare). The membranes were saturated with 5% (wt/vol) skim milk in TBST [Tris-buffered saline/0.1% (vol/vol) Tween 20] 1 h at room temperature and incubated with anti-myc antibody (clone 9E10, sc40 Santa Cruz) at a 1:500 dilution in 0.5% (wt/vol) skimmed milk in TBST overnight at 4° C. Membranes were then washed with TBST, incubated with an HRP-conjugated anti-mouse secondary antibody (polyclonal goat anti mouse P0447, Pierce) at a 1:20,000 dilution in TBST 1 h at room temperature. […] Quantification was performed using ImageJ software.
Background: Immunoblotting shows a protein as a band on a membrane.

For another test, the system named is BET bromodomains. Briefly: Selectivity profile across BET bromodomains (HTRF). It counts as binding. The method, then: Selectivity profiles of bromodomain inhibitors were performed as described in HTRF screen section. […] HTRF detection reagents (EPIgeneous™ Binding Domain kits) were purchased from Cisbio Bioassays and used according to supplier's protocol. GST tagged bromodomain proteins were purchased from BPS Bioscience and histone peptide from Anaspec.

Broadly, the IC50 is the concentration needed to halve the response being measured. What is called EC50 is the concentration needed to bring the measured effect to its halfway point. Take `CCCCc1c(C)nc2nc(SCc3nc4c(c(=O)[nH]c(=O)n4CCCC)n3CC)nn2c1C` [Compound 26b, 3-Butyl-8-(6-butyl-5,7-dimethyl-[1,2,4]triazolo[1,5-a]pyrimidin-2-ylsulfanylmethyl)-7-ethyl-3,7-dihydro-purine-2,6-dione]: the IC50 on BRD4(BD1) (HTRF, Table 1′, TABLE 2, read-out: BRD4(BD1) IC50) was found to be 5 µM; on BRD4(BD1) (HTRF, mean ± SD of three experiments, Table 2, read-out: IC50 μM, effect on BRD4(BD1) activity), 5 µM; on BRD4(BD1) (Table 3 selectivity profile, mean ± SD of three experiments, read-out: IC50 (μM) BRD4(BD1)), 5 ± 0.1 µM. For the same compound, the “LE (Ligand Efficiency)” value on BRD4(BD1) (LE = 1.4(−log(IC50)/N), BRD4(BD1)) is 0.22. The EC50 in the test on Jurkat cells was 27 µM. For the same compound, the c-Myc down regulation entry in the test with c-Myc was “down regulated c-Myc”. The “fold lower IC50 towards BRD4(BD1) as compared to its relatives BD1” value in the test with BET bromodomains (HTRF) is 10 fold. For the same compound, the “selectivity profile among BET bromodomains” value in the test with BET bromodomains (in words) is “selective towards BRD4(BD1)”.

(Values after US11225481B2 (Centre national de la recherche scientifique, priority 2015, dated 2022).)
